Data on 10 compounds can be found in patent publication US7750019B2, “Pyrimidine compound having benzyl(pyridylmethyl)amine structure and medicament comprising the same” (Kowa Company, Ltd., priority 2006, dated 2010).

Data set [1] addresses T1, CETP (Homo sapiens, UniProt P11597).
T1 construct: The CETP activity in this plasma was measured with Cholesteryl Ester Transfer Protein Activity kit; from tissue; host or cells: human plasma
T1 sequence (P11597 18-493): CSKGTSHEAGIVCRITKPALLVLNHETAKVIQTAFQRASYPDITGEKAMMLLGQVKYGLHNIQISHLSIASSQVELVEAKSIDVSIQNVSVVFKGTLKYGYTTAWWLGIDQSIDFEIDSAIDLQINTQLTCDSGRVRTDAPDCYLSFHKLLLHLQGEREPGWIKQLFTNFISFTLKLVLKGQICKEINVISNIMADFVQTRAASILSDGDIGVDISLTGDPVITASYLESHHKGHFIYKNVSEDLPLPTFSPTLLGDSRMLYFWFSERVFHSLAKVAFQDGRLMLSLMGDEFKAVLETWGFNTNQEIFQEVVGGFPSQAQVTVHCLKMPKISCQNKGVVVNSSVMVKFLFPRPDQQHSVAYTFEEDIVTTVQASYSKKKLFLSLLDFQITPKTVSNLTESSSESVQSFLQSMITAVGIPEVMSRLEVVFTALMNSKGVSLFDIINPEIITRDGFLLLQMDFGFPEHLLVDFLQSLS
The data set can be described thus: CETP inhibitory action in human plasma (Roar Biomedical CETP Activity kit, fluorescence). The following applies: human plasma incubated with compound at 37° C. for 4 hours; read-out: IC50 (concentration inhibiting the CETP activity by 50%). Type of data set: biochemical. Here is the method: A solution obtained by dissolving an exemplary compound or a comparative compound in polyethyleneglycol/N-methyl-2-pyrrolidone (vol/vol=1/1) was added to human plasma, and the mixture was incubated in an incubator at 37° C. for 4 hours. The CETP activity in this plasma was measured with Cholesteryl Ester Transfer Protein Activity kit (Roar Biomedical, catalog No.: RB-CETP). Specifically, to each well of a 96-well plate, 95 μL of a buffer (10 mM Tris, 150 mM NaCl, 2 mM EDTA, pH 7.4), 2 μL of Donor particle and 2 μL of Acceptor particle were added, 1 μL of the human plasma after the incubation was added to the mixture, and the mixture was incubated in an incubator at 37° C. for 2 hours. After completion of the incubation, fluorescence intensity (FLU) was measured with a fluorescence plate reader (excitation wavelength: 465 nm, emission wavelength: 535 nm). In accordance with the following equation 1, the CETP activity (% of control) was obtained for the compounds of the examples and the comparative compounds for two or more concentrations. CETP activity (% of control)=(Sample FLU−Blank FLU)×100/(Control FLU−Blank FLU) (Equation 1) In the equation, the terms have the following meanings: Blank: No addition of plasma Control: Plasma not added with solution of compound Sample: Plasma added with solution of compound
A value obtained by subtracting the value of the CETP activity from 100 was defined as the CETP inhibitory rate of each exemplary compound and comparative compound, and a concentration inhibiting the CETP activity by 50% (IC50) was calculated for each exemplary compound and comparative compound from the values of the CETP inhibitory rate at two or more concentrations. As the comparative compounds, the following compounds were used, which are compounds having a benzyl(heterocyclylmethyl)amine structure described in Examples 52, 66 and 79 of Patent document 9 (International Patent Publication WO2006/073973).

Data set [2] concerns CETP. The data set can be described thus: CETP inhibitory activity in blood of hamster (single oral administration). Type of data set: in vivo. The conditions noted are these: 30 mg/kg single oral dose in olive oil, blood collected 2 hours after administration, n=3, control 33.7 ± 2.3. Here is the method: 1: Labeling of Donor Lipoprotein (HDL3 Fraction) with ^3H-Cholesterol and Preparation of Acceptor Lipoprotein (LDL Fraction)
The donor lipoprotein was prepared by adding KBr to plasma of healthy human subject (50 mL) to adjust the specific gravity (d) of the plasma to be 1.125, centrifuging the mixture at 100,000 rpm and 4° C. for 2.5 hours (Optima Max-E TLA-100.2 rotor, Beckman), and collecting the lower layer (HDL3 fraction, d>1.125). The resulting fraction was dialyzed against PBS (10 mM Na2HPO4, 10 mM NaH2PO4, 0.15 M NaCl, 1 mM EDTA-2Na, pH 7.4). Then, a 95% ethanol solution of 9.25 MBq 1, 2-3H(N)cholesterol (NEN™, Life Science Products, USA) was added to the sample with stirring, and the mixture was incubated at 37° C. for 18 hours. After the incubation, the mixture was added with KBr to adjust the specific gravity thereof to be 1.210, and centrifuged under the same conditions as mentioned above to obtain the upper layer (^3H-labeled HDL3 fraction, 1.125<d<1.210). The ^3H-labeled HDL3 was dialyzed against PBS, and used for the measurement of the CETP activity.
The acceptor lipoprotein was prepared as follows. Plasma of healthy human subject (30 mL) was centrifuged under the same conditions as mentioned above, and the upper layer (chylomicron and VLDL fraction, d<1.006) was removed. The lower layer was added with KBr to adjust the specific gravity thereof to be 1.063, and centrifuged under the same conditions to obtain the upper layer (LDL fraction, 1.006<d<1.063). The LDL fraction was dialyzed against PBS and used for the measurement of the CETP activity.
Each of the compounds of Examples 10 and 13 and the comparative compounds was dissolved in olive oil and orally administered once to the animals, and blood was collected from the abdominal portion of vena cava under pentobarbital anesthetization 2 hours after the administration. Further, as a control, olive oil in which any compound was not dissolved was administered, and blood was collected in a similar manner (n=3 for each).
(§1) To 10 μL of the hamster plasma, 5 μL of ^3H-labeled HDL3 and 20 μL of LDL were added, and the final volume of the mixture was made […] with a TBS solution (10 mM Tris, 0.15 M NaCl, pH 7.4). The mixture was incubated at 37° C. for 18 hours, then added with 400 μL of the TBS solution containing 0.15 M MgCl2 and 0.3% dextran sulfate, stirred (10 sec×2) with VORTEX-2 (Scientific Industries Inc.), left for 30 minutes on ice, and centrifuged at 4° C. and 8,000 rpm for 10 minutes (MX-301, TOMY). The resulting centrifugation supernatant (^3H-labeled HDL3 fraction) in a volume of 300 μL was collected in a vial, and added with 3.6 mL of a scintillator (Aquazol-2, Packard), and the mixture was stirred. Then, radioactivity of ^3H was measured with a liquid scintillation counter (TRI-CARB 2700 TR, Packard). The CETP activity (%) was obtained in accordance with the following equation 2. CETP activity (%)=(Blank dpm−Sample dpm)×100/(Blank dpm) (Equation 2) In the equation, the terms have the following meanings: Blank dpm: Value of ^3H radioactivity of sample not added with plasma Sample dpm: Value of ^3H radioactivity of sample added with compound or control sample.

Data set [3] has as its system CETP. Kind of data set: CETP inhibitory activity in blood of hamster (repetitive oral administration for 7 days). The class given is in vivo. The following applies: 100 mg/kg orally once a day for 7 days, blood collected 2 hours after final administration, n=5, control 43.5 ± 6.4. Here is the method:
as §1, with “sample. […]” for “sample.”

Usually melting point stands for the temperature of the solid-liquid transition.

Structures can show the parent of a compound that is named as a salt.

Take `CCN(CC1CCCC1)c1ccc(OC)nc1CN(Cc1cc(C(F)(F)F)cc(C(F)(F)F)c1)c1ncc(OCCS(C)(=O)=O)cn1` (as salt: hydrochloride) [Example 13, 2-[N-[3,5-bis(trifluoromethyl)benzyl]-N-[3-(N-cyclopentylmethyl-N-ethyl)amino-6-methoxypyridin-2-yl]methyl]amino-5-(2-methylsulfonylethoxy)pyrimidine]: the melting point was 67 to 71 °C.
As for `CCN(CC1CCCC1)c1nc2ccccc2cc1CN(Cc1cc(C(F)(F)F)cc(C(F)(F)F)c1)c1nnn(C)n1` [Comparative Compound 1, reference compound], the IC50 at CETP [1] stood at 1000 nM. Besides, the “Average CETP activity ± standard deviation (%)” value in the data set with CETP [2] stood at 22.9 ± 3.3%.
For `CCN(CC1CCCC1)c1nc2ccccc2cc1CN(Cc1cc(C(F)(F)F)cc(C(F)(F)F)c1)c1ncccn1` [Comparative Compound 2, reference compound], in that order: 20000 nM and 30.3 ± 4.2%.
For `CCN(CC1CCCC1)c1nc(C)c(C)cc1CN(Cc1cc(C(F)(F)F)cc(C(F)(F)F)c1)c1nnn(C)n1` [Comparative Compound 3, reference compound], in that order: 1500 nM and 15.0 ± 4.0%.
On to `CCN(CC1CCCC1)c1ccc(OC)nc1CN(Cc1cc(C#N)cc(C(F)(F)F)c1)c1ncc(OCC[S+](C)[O-])cn1` (stereo not drawn) [Example 9, 2-[N-(3-cyano-5-trifluoromethylbenzyl)-N-[3-(N-cyclopentylmethyl-N-ethyl)amino-6-methoxypyridin-2-yl]methyl]amino-5-(2-methylsulfinylethoxy)pyrimidine], for which the IC50 on CETP [1] came out at 90 nM.
`CCN(CC1CCCC1)c1ccc(OC)nc1CN(Cc1cc(C#N)cc(C(F)(F)F)c1)c1ncc(OCCS(C)(=O)=O)cn1` [Example 10, 2-[N-(3-cyano-5-trifluoromethylbenzyl)-N-[3-(N-cyclopentylmethyl-N-ethyl)amino-6-methoxypyridin-2-yl]methyl]amino-5-(2-methylsulfonylethoxy)pyrimidine] came in with a melting point of 97.2 to 98.2 °C. Also, the IC50 at CETP [1] stood at 35 nM. Further, the “Average CETP activity ± standard deviation (%)” value in the data set on CETP [2] was found to be 2.6 ± 1.1%. In the data set on CETP [3], the “Average CETP activity ± standard deviation (%)” value turned out to be 11.4 ± 6.0%.
`CCN(CC1CCCC1)c1ccc(OC)nc1CN(Cc1cc(C(F)(F)F)cc(C(F)(F)F)c1)c1ncc(OCC[S+](C)[O-])cn1` (stereo not drawn) [Example 12, 2-[N-[3,5-bis(trifluoromethyl)benzyl]-N-[3-(N-cyclopentylmethyl-N-ethyl)amino-6-methoxypyridin-2-yl]methyl]amino-5-(2-methylsulfinylethoxy)pyrimidine]: the IC50 at CETP [1] amounted to 350 nM.
`CCN(CC1CCCC1)c1ccc(OC)nc1CN(Cc1cc(C(F)(F)F)cc(C(F)(F)F)c1)c1ncc(OCCS(C)(=O)=O)cn1` [Example 13, 2-[N-[3,5-bis(trifluoromethyl)benzyl]-N-[3-(N-cyclopentylmethyl-N-ethyl)amino-6-methoxypyridin-2-yl]methyl]amino-5-(2-methylsulfonylethoxy)pyrimidine]: the IC50 at CETP [1] worked out at 250 nM. Besides, the “Average CETP activity ± standard deviation (%)” value in the data set with CETP [2] is 8.5 ± 1.7%; in the data set on CETP [3], 9.0 ± 1.7%.
Consider `CCN(CC1CCCC1)c1ccc(OC)nc1CN(Cc1cc(C#N)cc(C#N)c1)c1ncc(OCC[S+](C)[O-])cn1` (stereo not drawn) [Example 41, 2-[N-[3-(N-cyclopentylmethyl-N-ethyl)amino-6-methoxypyridin-2-yl]methyl-N-(3,5-dicyanobenzyl)]amino-5-(2-methylsulfinylethoxy)pyrimidine], for which the IC50 on CETP [1] was 500 nM.
On to `CCN(CC1CCCC1)c1ccc(OC)nc1CN(Cc1cc(C#N)cc(C#N)c1)c1ncc(OCCS(C)(=O)=O)cn1` [Example 42, 2-[N-[3-(N-cyclopentylmethyl-N-ethyl)amino-6-methoxypyridin-2-yl]methyl-N-(3,5-dicyanobenzyl)]amino-5-(2-methylsulfonylethoxy)pyrimidine], for which the IC50 at CETP [1] was determined as 250 nM.
